Reference: article PMC5668240, “Fragment-based screening identifies novel targets for inhibitors of conjugative transfer of antimicrobial resistance by plasmid pKM101” (Scientific Reports, 2017)

Assays:
[1] = target: T1, purified periplasmic domain of TraE (plasmid pKM101) (Escherichia coli, UniProt Q17U16); assay: Binding to TraE by fluorescence quenching (intrinsic UV fluorescence); settings: 20 °C, 20 mM HEPES, 50 mM NaCl, pH 7.4; single site saturation fit
Description: Protein overexpression and purification was performed as described previously. The TraE buffer was changed to 20 mM HEPES, 50 mM NaCl, pH 7.4. TraE protein concentrations were determined using the molar extinction coefficient at 280 nm of 25 900 M^−1 cm^−1.
Changes of the intrinsic UV fluorescence emission of TraE upon binding of fragments and small molecules were recorded at 20 °C with a Cary Eclipse Fluorometer (Varian) (λex 295 nm, λem 340 nm, 5 nm excitation and emission slit widths) in 20 mM HEPES, 50 mM NaCl, pH 7.4. The spectra were corrected for dilution effects and KD values were calculated from the ligand binding fluorescence data fitted to a single site saturation curve with constant background using the Grafit 6.0 software package.

[2] = target: T1, purified periplasmic domain of TraE (plasmid pKM101); assay: Differential scanning fluorimetry (DSF) thermal shift of TraE; type: binding; settings: 5 mM fragment or small molecule, 5 μM protein; hit when ΔTm higher than 1 °C
Description: A library of 505 fragments was used in this study of which 186 were previously described[14] and the others are listed in Supplementary Table 3. DSF experiments were performed as described previously. DSF was conducted using 5 μM of protein, 10X concentration of SYPRO Orange (from 5000X stock solution, ThermoFisher) in 20 mM HEPES, 50 mM NaCl, pH 7.4 and 5% final concentration of DMSO. For fragment-based screening and molecule optimization, fragments or small molecules were added to final concentrations of 5 mM. SYPRO Orange fluorescence was monitored over 20–95 °C with a LightCycler® 480 instrument (Roche, USA). The LightCycler® 480 Software (Roche) was used to calculate the first derivate of the resulting melting curve, with the steepest point of the slope being the Tm. Fragments were considered to be hits when ΔTm was higher than 1 °C, which is two times higher than the standard deviation of the DMSO control.

[3] = tested on: purified periplasmic domain of TraE; assay: In vitro DSS cross-linking assay of TraE dimerization; type: biochemical; settings: 0–1.6 mM molecule, normalized to control without small molecules
Description: Chemical crosslinking with disuccinimidyl suberate (DSS, Pierce) was performed as described previously[13] and the formation of crosslinking products was quantified by SDS-PAGE and using the ImageLab Software 4.0 (Bio-Rad).

[4] = tested on: conjugative transfer of plasmid pKM101; assay: Conjugation assay, pKM101-carrying donor FM433 and plasmid-free recipient WL400; type: cell-based; settings: 50 μM, 2.5% DMSO
Description: Quantitation of conjugative DNA transfer was performed as described previously. For analysis of the inhibition of conjugation by fragments or small molecules, the cells were cultivated on agar and in liquid media in the presence of 50 μM of the small molecules in the presence of 2.5% DMSO.

T1 sequence (Q17U16 entry or part of it): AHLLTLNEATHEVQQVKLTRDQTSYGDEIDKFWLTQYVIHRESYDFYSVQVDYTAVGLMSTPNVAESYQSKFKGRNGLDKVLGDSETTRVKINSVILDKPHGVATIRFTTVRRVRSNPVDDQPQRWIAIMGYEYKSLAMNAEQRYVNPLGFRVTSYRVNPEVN

| Compound | Kd [1] | Effect on thermal melting point of TraE (DSF) [2] | Effect on formation of DSS-dependent cross-linking products of TraE (dimerization) [3] | Effect on conjugative transfer of pKM101 [4] |
| --- | --- | --- | --- | --- |
| O=C(O)c1ccnc(-c2ccco2)c1 [compound 239852, 2-(2-furyl)isonicotinic acid] | 19.6 ± 1.2 µM | stabilized the protein | significantly inhibit cross-linking | significantly reduce conjugative DNA transfer |
| O=C(O)c1cc(-n2cccc2)ccn1 [compound 105055, 4-(1H-pyrrol-1-yl)pyridine-2-carboxylic acid] | 9.3 ± 0.4 µM | stabilized the protein | significantly inhibit cross-linking | significantly reduce conjugative DNA transfer |
| 2-chloroisonicotinic acid [4H10] | 32 ± 1.8 µM |  |  | no effect on conjugation |
| O=C(O)c1ccco1 [1E6, 2-furoic acid] | 23 ± 1.9 µM |  |  | no effect on conjugation |
